Test results reported in patent US20260022142A1, “MACROCYCLIC IMMUNOMODULATORS” (Bristol-Myers Squibb Company, priority 2022, published 2026).
Bridge positions count the residues as written; N and C are the ends. Square brackets hold non-standard residues; d marks the D form. Peptide text beside a SMILES is read from it. * marks the point of attachment. ξ: configuration not given here. Bip = N[C@@H](Cc1ccc(-c2ccccc2)cc1)C(=O)O; Phe(3-Me) = Cc1cccc(C[C@H](N)C(=O)O)c1; hArg = N=C(N)NCCCC[C@H](N)C(=O)O; Cha = N[C@@H](CC1CCCCC1)C(=O)O; Cit = NC(=O)NCCC[C@H](N)C(=O)O; Thr(3ξ) = CC(O)[C@H](N)C(=O)O; Carboxymethyl = O=C(O)C*; NMeA = CN[C@@H](C)C(=O)O; Orn = NCCC[C@H](N)C(=O)O; Aun = NCCCCCCCCCCC(=O)O; Dab = NCC[C@H](N)C(=O)O; AEEA = NCCOCCOCC(=O)O

Molecular target: T1, PD-1/PD-L1 interaction (PE-labeled human PD-L1-Ig binding to Jurkat cell line over-expressing human PD-1) (Homo sapiens, UniProt Q15116)
T1 construct: expressed in transfected cells; host or cells: Jurkat
Experiment: Jurkat-PD-1 Cell Binding High-Content Screening Assay (CBA)
Type: cell-based
Conditions: Jurkat cell line over-expressing human PD-1; PE-labeled PD-L1-Ig 20 nM final; read-out: Jurkat hPD1-PDL1 IC50
In short: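 First, compound is added to PD-1-expressing Jurkat cells in serum-containing DMEM and left 2 h at 37° C. Next, PE-conjugated PD-L1-Ig is introduced at 20 nM final concentration for 1 hour. Finally, cells are fixed in 4% paraformaldehyde with Hoechst 33342, washed and imaged.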

T1 sequence (Q15116 25-288): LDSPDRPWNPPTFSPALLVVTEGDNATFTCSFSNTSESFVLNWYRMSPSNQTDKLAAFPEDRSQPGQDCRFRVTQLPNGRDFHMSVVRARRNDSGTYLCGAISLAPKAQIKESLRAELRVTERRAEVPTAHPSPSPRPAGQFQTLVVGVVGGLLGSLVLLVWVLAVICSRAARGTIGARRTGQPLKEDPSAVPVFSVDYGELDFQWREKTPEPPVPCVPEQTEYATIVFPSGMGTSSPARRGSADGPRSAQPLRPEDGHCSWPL

Compound | IC50 [nM]
Cc1cccc(C[C@@H]2NC(=O)[C@H](CC(=O)O)NC(=O)[C@H](Cc3c[nH]cn3)NC(=O)[C@H](CCCNC(=N)N)NC(=O)CSC[C@@H](C(=O)N[C@@H](CCCCN)C(=O)NCCCCCCCCCCC(=O)O)NC(=O)[C@H](CCCN)NC(=O)[C@H](C(C)C)NC(=O)[C@H](CC3CCCCC3)NC(=O)[C@H](CCN)NC(=O)[C@@H](CC(C)C)NC(=O)[C@H](CCCN)NC(=O)[C@H](C(C)C)NC(=O)[C@H](Cc3ccc(-c4ccccc4)cc3)NC(=O)[C@H](C(C)C)NC2=O)c1 [Compound 3296] ({CH2CO}-RHD[Phe(3-Me)]V[Bip]V[Orn][dL][Dab][Cha]V[Orn]CK[Aun]-OH; thioether N-14) | 20.3
Cc1cccc(C[C@@H]2NC(=O)[C@H](CC(=O)O)NC(=O)[C@H](Cc3ccc(OCC(=O)O)cc3)NC(=O)[C@H](CCCNC(=N)N)NC(=O)CSC[C@@H](C(=O)N[C@@H](CCN)C(=O)NCCCCCCCCCCC(=O)O)NC(=O)[C@H](C(C)O)NC(=O)[C@H](C(C)C)NC(=O)[C@H](CC3CCCCC3)NC(=O)[C@H](CCN)NC(=O)[C@@H](CC(C)C)NC(=O)[C@H](CCCN)NC(=O)[C@H](CCCNC(N)=O)NC(=O)[C@H](Cc3ccc(-c4ccccc4)cc3)NC(=O)[C@H](C(C)C)NC2=O)c1 (stereo partly drawn) [Compound 3301] ({CH2CO}-RY(Carboxymethyl)D[Phe(3-Me)]V[Bip][Cit][Orn][dL][Dab][Cha]V[Thr(3ξ)]C[Dab][Aun]-OH; thioether N-14) | 17.4
Cc1cccc(C[C@@H]2NC(=O)[C@H](CC(=O)O)NC(=O)[C@H](Cc3ccc(OCC(=O)O)cc3)NC(=O)[C@H](CCCNC(=N)N)NC(=O)CSC[C@@H](C(=O)N[C@@H](CCN)C(=O)NCCCCCCCCCCC(=O)O)NC(=O)[C@H](C(C)O)NC(=O)[C@H](C(C)C)NC(=O)[C@H](CC3CCCCC3)NC(=O)[C@H](CCN)NC(=O)[C@@H](CC(C)C)NC(=O)[C@H](CCCN)NC(=O)[C@H](CCCN)NC(=O)[C@H](Cc3ccc(-c4ccccc4)cc3)NC(=O)[C@H](C(C)C)NC2=O)c1 (stereo partly drawn) [Compound 3303] ({CH2CO}-RY(Carboxymethyl)D[Phe(3-Me)]V[Bip][Orn][Orn][dL][Dab][Cha]V[Thr(3ξ)]C[Dab][Aun]-OH; thioether N-14) | 15.1
Cc1cccc(C[C@@H]2NC(=O)[C@H](CC(=O)O)NC(=O)[C@H](Cc3ccc(OCC(=O)O)cc3)NC(=O)[C@H](CCCNC(=N)N)NC(=O)CSC[C@@H](C(=O)N[C@@H](CCN)C(=O)NCCCCCCCCCCC(=O)O)NC(=O)[C@H](C(C)O)NC(=O)[C@H](C(C)C)NC(=O)[C@H](CC3CCCCC3)NC(=O)[C@H](CCN)NC(=O)[C@@H](CC(C)C)NC(=O)[C@H](CCCNC(N)=O)NC(=O)[C@H](CCCN)NC(=O)[C@H](Cc3ccc(-c4ccccc4)cc3)NC(=O)[C@H](C(C)C)NC2=O)c1 (stereo partly drawn) [Compound 3304] ({CH2CO}-RY(Carboxymethyl)D[Phe(3-Me)]V[Bip][Orn][Cit][dL][Dab][Cha]V[Thr(3ξ)]C[Dab][Aun]-OH; thioether N-14) | 14.2
Cc1cccc(C[C@@H]2NC(=O)[C@H](CC(=O)O)NC(=O)[C@H](Cc3ccc(OCC(=O)O)cc3)NC(=O)[C@H](CCCNC(=N)N)NC(=O)CSC[C@@H](C(=O)N[C@@H](CCN)C(=O)NCCCCCCCCCCC(=O)O)NC(=O)[C@H](CCCN)NC(=O)[C@H](C(C)C)NC(=O)[C@H](CC3CCCCC3)NC(=O)[C@H](CCN)NC(=O)[C@@H](CC(C)C)NC(=O)[C@H](CCCN)NC(=O)[C@H](CCCNC(N)=O)NC(=O)[C@H](Cc3ccc(-c4ccccc4)cc3)NC(=O)[C@H](C(C)C)NC2=O)c1 [Compound 3306] ({CH2CO}-RY(Carboxymethyl)D[Phe(3-Me)]V[Bip][Cit][Orn][dL][Dab][Cha]V[Orn]C[Dab][Aun]-OH; thioether N-14) | 7.9
Cc1cccc(C[C@@H]2NC(=O)[C@H](CC(=O)O)NC(=O)[C@H](Cc3ccc(OCC(=O)O)cc3)NC(=O)[C@H](CCCNC(=N)N)NC(=O)CSC[C@@H](C(=O)N[C@@H](CCN)C(=O)NCCCCCCCCCCC(=O)O)NC(=O)[C@H](C(C)O)NC(=O)[C@H](C(C)C)NC(=O)[C@H](CC3CCCCC3)NC(=O)[C@H](CCN)NC(=O)[C@@H](CC(C)C)NC(=O)[C@H](CCN)NC(=O)[C@H](CCCNC(N)=O)NC(=O)[C@H](Cc3ccc(-c4ccccc4)cc3)NC(=O)[C@H](C(C)C)NC2=O)c1 (stereo partly drawn) [Compound 3307] ({CH2CO}-RY(Carboxymethyl)D[Phe(3-Me)]V[Bip][Cit][Dab][dL][Dab][Cha]V[Thr(3ξ)]C[Dab][Aun]-OH; thioether N-14) | 7.4
Cc1cccc(C[C@@H]2NC(=O)[C@H](CC(=O)O)NC(=O)[C@H](Cc3ccc(OCC(=O)O)cc3)NC(=O)[C@H](CCCNC(=N)N)NC(=O)CSC[C@@H](C(=O)N[C@H](CC(N)=O)C(=O)NCCCCCCCCCCC(=O)O)NC(=O)[C@H](CCCN)NC(=O)[C@H](C(C)C)NC(=O)[C@H](CC3CCCCC3)NC(=O)[C@H](CCN)NC(=O)[C@@H](CC(C)C)NC(=O)[C@H](CCCN)NC(=O)[C@H](CCCNC(N)=O)NC(=O)[C@H](Cc3ccc(-c4ccccc4)cc3)NC(=O)[C@H](C(C)C)NC2=O)c1 [Compound 3311] ({CH2CO}-RY(Carboxymethyl)D[Phe(3-Me)]V[Bip][Cit][Orn][dL][Dab][Cha]V[Orn]C[dN][Aun]-OH; thioether N-14) | 4.4
Cc1cccc(C[C@@H]2NC(=O)[C@H](CC(=O)O)NC(=O)[C@H](Cc3ccc(OCC(=O)O)cc3)NC(=O)[C@H](C(C)O)NC(=O)CSC[C@@H](C(=O)N[C@H](CC(N)=O)C(=O)NCCCCCCCCCCC(=O)O)NC(=O)[C@H](CCCN)NC(=O)[C@H](C(C)C)NC(=O)[C@H](CC3CCCCC3)NC(=O)[C@H](CCN)NC(=O)[C@@H](CC(C)C)NC(=O)[C@H](CCCN)NC(=O)[C@H](CCCNC(N)=O)NC(=O)[C@H](Cc3ccc(-c4ccccc4)cc3)NC(=O)[C@H](C(C)C)NC2=O)c1 (stereo partly drawn) [Compound 3312] ({CH2CO}-[Thr(3ξ)]Y(Carboxymethyl)D[Phe(3-Me)]V[Bip][Cit][Orn][dL][Dab][Cha]V[Orn]C[dN][Aun]-OH; thioether N-14) | 4.4
Cc1cccc(C[C@@H]2NC(=O)[C@H](CC(=O)O)NC(=O)[C@H](Cc3ccc(OCC(=O)O)cc3)NC(=O)[C@H](C(C)O)NC(=O)CSC[C@@H](C(=O)N(C)[C@@H](C)C(=O)NCCOCCOCC(=O)NCCCCCCCCCCC(=O)O)NC(=O)[C@H](CCCN)NC(=O)[C@H](C(C)C)NC(=O)[C@H](CC3CCCCC3)NC(=O)[C@H](CCN)NC(=O)[C@@H](CC(C)C)NC(=O)[C@H](CCN)NC(=O)[C@H](C(C)C)NC(=O)[C@H](Cc3ccc(-c4ccccc4)cc3)NC(=O)[C@H](C(C)C)NC2=O)c1 (stereo partly drawn) [Compound 3320] ({CH2CO}-[Thr(3ξ)]Y(Carboxymethyl)D[Phe(3-Me)]V[Bip]V[Dab][dL][Dab][Cha]V[Orn]C[NMeA][AEEA][Aun]-OH; thioether N-14) | 68.5

Continued by falling IC50, values first:

IC50 [nM] | Compound
53.4 | Cc1cccc(C[C@@H]2NC(=O)[C@H](CC(=O)O)NC(=O)[C@H](Cc3ccc(OCC(=O)O)cc3)NC(=O)[C@H](CCCNC(=N)N)NC(=O)CSC[C@@H](C(=O)N(C)[C@@H](C)C(=O)NCCOCCOCC(=O)NCCCCCCCCCCC(=O)O)NC(=O)[C@H](CCCN)NC(=O)[C@H](C(C)C)NC(=O)[C@H](CC3CCCCC3)NC(=O)[C@H](CCN)NC(=O)[C@@H](CC(C)C)NC(=O)[C@H](CCN)NC(=O)[C@H](C(C)C)NC(=O)[C@H](Cc3ccc(-c4ccccc4)cc3)NC(=O)[C@H](C(C)C)NC2=O)c1 [Compound 3319] ({CH2CO}-RY(Carboxymethyl)D[Phe(3-Me)]V[Bip]V[Dab][dL][Dab][Cha]V[Orn]C[NMeA][AEEA][Aun]-OH; thioether N-14)
14.1 | Cc1cccc(C[C@@H]2NC(=O)[C@H](CC(=O)O)NC(=O)[C@H](Cc3ccc(OCC(=O)O)cc3)NC(=O)[C@H](CCCCNC(=N)N)NC(=O)CSC[C@@H](C(=O)N[C@@H](CCN)C(=O)NCCCCCCCCCCC(=O)O)NC(=O)[C@H](C(C)O)NC(=O)[C@H](C(C)C)NC(=O)[C@H](CC3CCCCC3)NC(=O)[C@H](CCN)NC(=O)[C@@H](CC(C)C)NC(=O)[C@H](CCCN)NC(=O)[C@H](CCCNC(N)=O)NC(=O)[C@H](Cc3ccc(-c4ccccc4)cc3)NC(=O)[C@H](C(C)C)NC2=O)c1 (stereo partly drawn) [Compound 3302] ({CH2CO}-[hArg]Y(Carboxymethyl)D[Phe(3-Me)]V[Bip][Cit][Orn][dL][Dab][Cha]V[Thr(3ξ)]C[Dab][Aun]-OH; thioether N-14)
6.5 | Cc1cccc(C[C@@H]2NC(=O)[C@H](CC(=O)O)NC(=O)[C@H](Cc3ccc(OCC(=O)O)cc3)NC(=O)[C@H](CCCNC(=N)N)NC(=O)CSC[C@@H](C(=O)N[C@@H](CCN)C(=O)NCCCCCCCCCCC(=O)O)NC(=O)[C@H](CCCNC(N)=O)NC(=O)[C@H](C(C)C)NC(=O)[C@H](CC3CCCCC3)NC(=O)[C@H](CCN)NC(=O)[C@@H](CC(C)C)NC(=O)[C@H](CCCN)NC(=O)[C@H](CCC(N)=O)NC(=O)[C@H](Cc3ccc(-c4ccccc4)cc3)NC(=O)[C@H](C(C)C)NC2=O)c1 [Compound 3305] ({CH2CO}-RY(Carboxymethyl)D[Phe(3-Me)]V[Bip]Q[Orn][dL][Dab][Cha]V[Cit]C[Dab][Aun]-OH; thioether N-14)
6.2 | Cc1cccc(C[C@@H]2NC(=O)[C@H](CC(=O)O)NC(=O)[C@H](Cc3ccc(OCC(=O)O)cc3)NC(=O)[C@H](CCCNC(=N)N)NC(=O)CSC[C@@H](C(=O)NCCCCCCCCCCC(=O)O)NC(=O)[C@H](CCCN)NC(=O)[C@H](C(C)C)NC(=O)[C@H](CC3CCCCC3)NC(=O)[C@H](CCN)NC(=O)[C@@H](CC(C)C)NC(=O)[C@H](CCCN)NC(=O)[C@H](C(C)C)NC(=O)[C@H](Cc3ccc(-c4ccccc4)cc3)NC(=O)[C@H](C(C)C)NC2=O)c1 [Compound 3316] ({CH2CO}-RY(Carboxymethyl)D[Phe(3-Me)]V[Bip]V[Orn][dL][Dab][Cha]V[Orn]C[Aun]-OH; thioether N-14)
